Consider four molecules from patent publication US10654851B2, “Deuterated 3-(4,5-substituted aminopyrimidine)phenyl derivatives and use thereof” (NANJING CHUANGTE PHARMACEUTICAL TECHNOLOGY CO., LTD, priority 2016, dated 2020).

The target in assay [1] is T1, EGFR wild type (Homo sapiens, UniProt P00533).
T1 construct: purchased Invitrogen Corporation Shanghai Representative Office
As to the kind of experiment: HTRF kinase activity assay, EGFR wild type. In kind it is biochemical. The settings on record: 10 μM ATP, read-out: In vitro enzymatic activity IC50, EGFR. (In general: Time-resolved FRET reads energy transfer from a long-lived donor to a nearby acceptor.)
Description: (§1) The above kinases were purchased from Invitrogen Corporation Shanghai Representative Office.
(§2) The reaction concentration of the compounds was three times diluted from 1000 nM for 9 concentrations. The concentration of DMSO in the reaction system was 2%. The enzyme and the compound were pre-incubated for 15 minutes, and then ATP and substrate were added to initiate the reaction. All enzyme catalyzed reactions were carried out at 25° C. for 60 minutes. […] Measure the HTRF fluorescence value with CLARIOstar (BMG LABTECH) after the incubation, and IC50 was determined using GraphPad Prism 5.0.

In assay [2] the target is T2, Exon19 deletion EGFR in HCC827 cells (Homo sapiens, UniProt P00533, DEL746-750).
T2 construct: Assayed the endogenous p-EGFR of the cell lysate; host or cells: HCC827
As to the kind of experiment: Exon19 deletion EGFR cell phosphorylation assay (HCC827). The class given is cell-based. The settings on record: 2 h incubation, read-out: Cell level EGFR phosphorylation IC50, HCC827 (EGFR del19).
Description: Test 2: Exon19 Deletion EGFR (Activated Single Mutant) Cell Phosphorylation Assay
The human non-small cell lung cancer cell line HCC827 (Exon19 deletion EGFR, activated single mutant) was purchased from the cell bank of the Chinese Academy of Sciences. HCC827 was maintained in an RPMI1640 culture media containing 10% fetal bovine serum. The cells were grown at 37° C. in a humidified incubator containing 5% CO2. Assayed the endogenous p-EGFR of the cell lysate according to the Phospho-EGFR HTRF kit (Cisbio, No. #64HR1PEG). 100 μL of cells were added to a 96-well plate (50000 cells/well), and cultured overnight at 37° C. in a cell incubator with 5% CO2. 4-fold serial dilutions was added to the cells, the maximum concentration of the reaction being 10 μM. The culture solution was discarded after 2 hours' continuous incubation, lysate (25 μL/well) was added immediately, lyse the cells at room temperature for 10 minutes, then 12 μL/well of cells were added to a Greiner white small-volume 384-well plate, detection antibodies (Anti-phospho EGFR-d2 and Anti-EGFR-Tb) were added, and the cells were incubated at 25° C. for 60 minutes. The HTRF fluorescence value was measured with CLARIOstar (BMG LABTECH) after the incubation, and IC50 was determined using GraphPad Prism 5.0.

Assay [3] concerns the target T3, hERG potassium channels (Homo sapiens, UniProt Q12809).
T3 construct: expressed in transfected cells; host or cells: HEK293
As to the kind of experiment: hERG potassium channel whole cell patch clamp. In kind it is cell-based. The settings on record: HEK293 cells stably expressing hERG, tail current, read-out: IC50 of inhibition on hERG potassium channels at cell level. The procedure:
3) Assay on the Effects of the Compounds on hERG Potassium Channels
HEK293 cells stably expressing an hERG channel were cultured in 35 mm culture dishes and placed in a 37° C./5% CO2 incubator for at least 24 hours before the experiment. The cell culture medium was DMEM containing 10% fetal bovine serum and 250 μg/mL G418.
The ingredients of the extracellular fluid used in the whole cell patch clamp experiment were (mM): NaCl, 137; KCl, 4; CaCl2, 1.8; MgCl2, 1; HEPES, 10; glucose 10; pH 7.4 (NaOH titration). All tested compounds and control compound solutions contained 0.3% DMSO. The intracellular fluid (mM) was: K Aspartate, 130; MgCl2, 5; EGTA 5; HEPES, 10; Tris-ATP 4; pH 7.2 (KOH titration).
One dish was taken out for each experiment, washed twice with the extracellular fluid, and placed on an inverted microscope stage. The whole cell patch clamp experiment was performed at room temperature with a tip resistance of 3 to 5 MΩ for a borosilicate glass microelectrode. After the whole cell recording mode, the membrane potential was clamped at −80 mV, gave a +50 mV depolarization voltage stimulation to the cells every 30 s and then repolarized to −50 mV for 3 s after 2 s to elicit hERG tail current. The cells were given a −50 mV repolarization voltage for 50 ms before the depolarization voltage stimulation, and the current recorded under this voltage was used as a baseline for calculating the hERG tail current. The hERG tail current was stably recorded for at least 3 minutes in the extracellular fluid before the addition of the compound. When the amplitude change of the hERG tail current was less than 5% after perfusion administration, it was considered that the drug action reached a steady state. Data was acquired and analyzed by a pCLAMP 10.1 software program. […] The inhibition rate of the tested compound to the hERG current was calculated according to the following equation: % inhibition rate={1−(remaining current amplitude)/(control current amplitude)}×100 […]

Assay [4] addresses wild type EGFR in A431 cells (Homo sapiens, UniProt P00533). As to the kind of experiment: EGFR wild type cell phosphorylation assay (A431).
Description: Test 1: EGFR Wild Type Cell Phosphorylation Assay
The human epidermoid carcinom cell line A431 expressed wild type EGFR and was purchased from the cell bank of the Chinese Academy of Sciences. A431 was maintained in an EMEM culture media containing 10% fetal bovine serum. The cells were grown at 37° C. in a humidified incubator containing 5% CO2. Endogenous p-EGFR in the cell lysate was assayed according to Phospho-EGFR HTRF kit (Cisbio, No. #64HR1PEG). Cells were plated (50000 cells/well) in a volume of 100 μL of complete media in 96-well cell culture plates and cultured at 37° C. with 5% CO2 overnight. 4-fold serial dilutions was added to the cells, the maximum concentration of the reaction being 10 μM. The cells were incubated continuously for 2 hours, 100 ng/well of EGF was added, incubated at 37° C. for 10 minutes, then the culture solution was discarded, lysis buffer (25 μL/well) was added immediately, lyse the cells at room temperature for 10 minutes, then 12 μL/well of the cell lysates were added to a Greiner white small-volume 384-well plate, detection antibodies (Anti-phospho EGFR-d2 and Anti-EGFR-Tb) were added, and the cells were incubated at 25° C. for 60 minutes. The HTRF fluorescence value was measured with CLARIOstar (BMG LABTECH) after the incubation, and IC50 was determined using GraphPad Prism 5.0.
Assay [5] addresses EGFR (L858R) single mutant (Homo sapiens, UniProt P00533, L858R). As to the kind of experiment: HTRF kinase activity assay, EGFR (L858R) single mutant.
Description: as §1, §2

As usually defined, the IC50 is the point on the concentration scale where inhibition reaches its midpoint.

T3 sequence (Q12809 whole entry): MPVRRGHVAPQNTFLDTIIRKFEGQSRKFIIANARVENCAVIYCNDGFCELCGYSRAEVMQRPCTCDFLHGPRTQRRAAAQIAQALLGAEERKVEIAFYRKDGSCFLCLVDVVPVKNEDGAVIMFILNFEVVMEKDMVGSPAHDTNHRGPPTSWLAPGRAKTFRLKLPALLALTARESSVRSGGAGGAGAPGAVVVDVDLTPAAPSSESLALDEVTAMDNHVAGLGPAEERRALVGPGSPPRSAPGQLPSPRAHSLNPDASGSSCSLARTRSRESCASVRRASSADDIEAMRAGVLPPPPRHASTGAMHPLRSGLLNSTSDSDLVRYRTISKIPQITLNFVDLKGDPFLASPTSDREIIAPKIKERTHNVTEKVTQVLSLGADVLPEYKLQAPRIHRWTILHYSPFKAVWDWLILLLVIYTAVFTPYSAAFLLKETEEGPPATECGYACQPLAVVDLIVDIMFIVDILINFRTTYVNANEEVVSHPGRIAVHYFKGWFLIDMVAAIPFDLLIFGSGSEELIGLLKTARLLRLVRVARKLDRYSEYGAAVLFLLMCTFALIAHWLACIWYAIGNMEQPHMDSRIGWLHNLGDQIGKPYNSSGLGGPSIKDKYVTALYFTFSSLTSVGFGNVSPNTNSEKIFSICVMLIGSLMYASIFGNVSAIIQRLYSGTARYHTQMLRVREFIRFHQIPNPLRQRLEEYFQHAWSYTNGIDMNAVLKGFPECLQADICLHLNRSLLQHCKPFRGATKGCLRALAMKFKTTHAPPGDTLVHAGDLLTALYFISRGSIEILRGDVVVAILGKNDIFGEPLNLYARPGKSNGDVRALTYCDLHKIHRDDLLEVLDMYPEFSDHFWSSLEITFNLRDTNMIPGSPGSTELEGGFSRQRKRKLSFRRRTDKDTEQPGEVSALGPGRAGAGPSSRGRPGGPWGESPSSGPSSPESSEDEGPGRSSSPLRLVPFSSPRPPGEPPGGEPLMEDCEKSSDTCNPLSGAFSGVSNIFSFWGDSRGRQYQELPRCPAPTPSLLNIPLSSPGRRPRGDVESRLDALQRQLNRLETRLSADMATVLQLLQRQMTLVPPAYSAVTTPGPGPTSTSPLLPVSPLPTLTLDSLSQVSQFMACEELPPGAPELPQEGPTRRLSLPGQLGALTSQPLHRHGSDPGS
Chain of EGFR (L858R) single mutant (P00533 25-1210 L858R): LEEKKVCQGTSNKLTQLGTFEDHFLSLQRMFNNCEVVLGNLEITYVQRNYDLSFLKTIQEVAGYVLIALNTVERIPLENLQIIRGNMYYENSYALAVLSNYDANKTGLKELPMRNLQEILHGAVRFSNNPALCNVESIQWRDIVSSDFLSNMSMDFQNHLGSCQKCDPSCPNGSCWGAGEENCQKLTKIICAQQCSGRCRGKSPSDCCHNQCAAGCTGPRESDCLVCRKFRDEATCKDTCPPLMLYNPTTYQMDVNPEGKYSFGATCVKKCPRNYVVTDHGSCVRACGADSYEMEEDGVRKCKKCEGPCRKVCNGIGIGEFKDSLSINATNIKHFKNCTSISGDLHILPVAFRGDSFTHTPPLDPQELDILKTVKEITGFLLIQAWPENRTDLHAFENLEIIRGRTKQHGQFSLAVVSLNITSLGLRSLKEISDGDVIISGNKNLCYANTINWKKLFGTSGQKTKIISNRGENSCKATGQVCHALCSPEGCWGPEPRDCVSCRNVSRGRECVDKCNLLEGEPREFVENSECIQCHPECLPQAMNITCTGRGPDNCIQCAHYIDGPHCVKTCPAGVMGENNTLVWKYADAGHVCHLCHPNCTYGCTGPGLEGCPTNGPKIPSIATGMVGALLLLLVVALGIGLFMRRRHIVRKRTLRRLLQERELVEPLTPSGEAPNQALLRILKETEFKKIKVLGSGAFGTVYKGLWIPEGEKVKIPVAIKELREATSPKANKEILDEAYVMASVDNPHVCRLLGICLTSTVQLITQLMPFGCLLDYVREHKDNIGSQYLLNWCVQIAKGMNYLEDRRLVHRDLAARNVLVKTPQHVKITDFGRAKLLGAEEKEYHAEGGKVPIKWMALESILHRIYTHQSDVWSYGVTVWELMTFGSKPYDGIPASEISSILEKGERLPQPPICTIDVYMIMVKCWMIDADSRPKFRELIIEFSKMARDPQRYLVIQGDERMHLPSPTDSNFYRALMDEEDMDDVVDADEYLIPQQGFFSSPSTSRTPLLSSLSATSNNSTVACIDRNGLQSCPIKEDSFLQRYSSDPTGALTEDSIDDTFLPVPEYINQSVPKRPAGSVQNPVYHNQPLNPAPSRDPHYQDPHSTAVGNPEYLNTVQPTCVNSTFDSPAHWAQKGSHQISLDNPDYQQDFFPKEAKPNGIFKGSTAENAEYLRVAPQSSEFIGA
Chain of wild type EGFR in A431 cells (P00533 25-1210): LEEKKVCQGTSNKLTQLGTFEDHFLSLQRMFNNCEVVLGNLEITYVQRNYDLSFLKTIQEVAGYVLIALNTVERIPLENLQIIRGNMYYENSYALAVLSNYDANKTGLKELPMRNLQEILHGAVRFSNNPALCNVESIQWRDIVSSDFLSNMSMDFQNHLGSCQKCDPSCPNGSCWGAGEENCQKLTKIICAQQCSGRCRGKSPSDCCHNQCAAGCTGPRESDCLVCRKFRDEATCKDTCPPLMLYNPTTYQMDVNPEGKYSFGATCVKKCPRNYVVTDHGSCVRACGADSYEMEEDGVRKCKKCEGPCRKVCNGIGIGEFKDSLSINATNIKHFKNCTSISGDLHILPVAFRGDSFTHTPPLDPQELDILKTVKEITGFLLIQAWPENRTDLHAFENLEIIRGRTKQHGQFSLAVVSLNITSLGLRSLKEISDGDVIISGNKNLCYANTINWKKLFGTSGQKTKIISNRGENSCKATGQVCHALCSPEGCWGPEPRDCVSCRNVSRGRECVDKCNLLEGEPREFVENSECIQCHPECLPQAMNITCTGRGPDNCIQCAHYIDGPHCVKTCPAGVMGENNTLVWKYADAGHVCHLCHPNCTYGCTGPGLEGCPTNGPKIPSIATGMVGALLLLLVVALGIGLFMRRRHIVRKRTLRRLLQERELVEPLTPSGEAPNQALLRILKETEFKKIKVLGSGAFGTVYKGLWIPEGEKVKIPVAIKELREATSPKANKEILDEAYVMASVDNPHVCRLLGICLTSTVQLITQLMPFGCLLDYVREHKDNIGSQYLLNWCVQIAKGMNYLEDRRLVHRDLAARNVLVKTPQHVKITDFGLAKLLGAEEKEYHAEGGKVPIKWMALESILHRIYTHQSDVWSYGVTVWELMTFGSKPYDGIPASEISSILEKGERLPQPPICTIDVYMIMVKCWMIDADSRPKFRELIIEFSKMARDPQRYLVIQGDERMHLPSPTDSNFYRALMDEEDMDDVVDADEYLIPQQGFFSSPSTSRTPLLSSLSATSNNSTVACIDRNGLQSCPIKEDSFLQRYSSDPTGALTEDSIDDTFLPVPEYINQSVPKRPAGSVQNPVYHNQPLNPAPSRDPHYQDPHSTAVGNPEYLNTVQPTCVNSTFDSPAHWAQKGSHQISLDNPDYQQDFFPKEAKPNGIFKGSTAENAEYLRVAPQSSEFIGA
T1 sequence (P00533 25-1210): as above

As to `[2H]C([2H])([2H])N(C)CCN(C)c1cc(OC)c(Nc2nccc(-c3cn4c5c(cccc35)CCC4)n2)cc1NC(=O)C=C` [Compound 11], the IC50 in assay [1] stood at 38 nM; in assay [2], 101 nM; in assay [3], 1850 nM; in assay [4] it was 730 nM; in assay [5], 11.5 nM.
For the molecule `[2H]C([2H])([2H])N(CCN(C)c1cc(OC)c(Nc2nccc(-c3cn4c5c(cccc35)CCC4)n2)cc1NC(=O)C=C)C([2H])([2H])[2H]` [Compound 16], the IC50 in assay [1] came to 27 nM; in assay [2] it was 103 nM; in assay [3] it was 2670 nM; in assay [4], 732 nM; in assay [5], 11.6 nM.
On to `[2H]C([2H])([2H])N(CCN(C)C)c1cc(OC)c(Nc2nccc(-c3cn4c5c(cccc35)CCC4)n2)cc1NC(=O)C=C` [Compound 24], for which the IC50 in assay [1] came to 15.7 nM; in assay [2] it was 78.1 nM; in assay [3], 1970 nM; in assay [4], 520 nM; in assay [5], 8.99 nM.
Regarding `[2H]C([2H])([2H])NCCN(C)c1cc(OC)c(Nc2nccc(-c3cn4c5c(cccc35)CCC4)n2)cc1NC(=O)C=C` [Compound 34], the IC50 in assay [1] came out at 35.4 nM; in assay [5] it was 14.1 nM.
